target: dipeptidyl peptidase IV (Homo sapiens, UniProt P27487); assay: biochemical; settings: values marked with "*" are ID50 values; read-out: IC50DPIV, values marked with "*" = ID50
Sequence (P27487 whole entry, species assumed): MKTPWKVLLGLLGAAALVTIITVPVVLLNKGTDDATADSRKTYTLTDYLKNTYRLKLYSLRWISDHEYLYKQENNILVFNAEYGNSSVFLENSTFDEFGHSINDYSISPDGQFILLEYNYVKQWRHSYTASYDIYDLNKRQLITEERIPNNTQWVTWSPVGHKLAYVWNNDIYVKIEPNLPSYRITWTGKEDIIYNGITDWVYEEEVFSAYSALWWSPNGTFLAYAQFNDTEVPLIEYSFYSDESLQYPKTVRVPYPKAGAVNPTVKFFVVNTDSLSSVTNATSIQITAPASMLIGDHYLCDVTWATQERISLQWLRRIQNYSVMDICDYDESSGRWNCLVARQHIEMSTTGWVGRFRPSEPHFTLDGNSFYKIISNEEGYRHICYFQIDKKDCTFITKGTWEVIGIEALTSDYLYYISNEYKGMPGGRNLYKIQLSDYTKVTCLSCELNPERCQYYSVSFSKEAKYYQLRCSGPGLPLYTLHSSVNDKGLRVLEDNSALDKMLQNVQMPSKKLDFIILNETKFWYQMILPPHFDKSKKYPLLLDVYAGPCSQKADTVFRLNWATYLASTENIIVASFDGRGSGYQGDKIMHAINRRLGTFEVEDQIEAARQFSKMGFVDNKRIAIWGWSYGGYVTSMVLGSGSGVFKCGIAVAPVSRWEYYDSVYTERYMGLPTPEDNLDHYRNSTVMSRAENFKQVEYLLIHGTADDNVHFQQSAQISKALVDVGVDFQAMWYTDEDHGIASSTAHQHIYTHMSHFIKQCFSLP

IC50 [µM]	Compound
1.4	O=C(Nc1ccccc1CC(=O)N1CCCNCC1)c1cccnc1Sc1ccccc1 [D1.002]
209	Cc1ccc(-n2c(SCC(=O)c3ccccc3)nc3sc4c(c3c2=O)CC(C(C)C)OC4)cc1 (stereo not drawn) [D3.102]

Further lines, the molecule ahead of its results:

Compound	IC50 [µM]
O=C(CCCCC(=O)N/N=C/c1ccc(OC(=O)c2cc([N+](=O)[O-])cc([N+](=O)[O-])c2)cc1)N/N=C/c1ccc(OC(=O)c2cc([N+](=O)[O-])cc([N+](=O)[O-])c2)cc1 [D10.001]	1
O=C(Nc1cccc(/N=C/c2cc(/N=N\c3ccccc3Cl)ccc2O)c1)c1ccco1 [D11.001]	2.5
COc1ccc2nc(NC(=O)COC(=O)CN3C(=O)c4ccccc4C3=O)sc2c1 [D3.103]	224
CCCn1c(N2CCN(CC(=O)Nc3c(C(=O)OCC)[nH]c4ccc(F)cc34)CC2)nc2c1c(=O)[nH]c(=O)n2C [D13.004]	69.8
O=C(N/N=C/c1ccc(O)c(O)c1)c1cccc([N+](=O)[O-])c1 [D10.111]	116
CCn1c2ccccc2c2cc(/C=N/NC(=O)c3ccc([N+](=O)[O-])cc3)ccc21 [D10.116]	165
COc1ccc(/C=C2\C(=O)N(c3ccccc3)C3=C2C(c2ccc(Br)cc2)N(c2ccccc2)C3=O)cc1 (stereo not drawn) [D12.047]	198

same assay, conditions: values without "*" = IC-50; read-out: IC50DPIV

IC50 [µM]	Compound
16.2	Cn1c(=O)c2c(nc(NCCCCO)n2Cc2ccccc2Cl)n(C)c1=O [D12.002]
12.7	COc1c(OC(C)=O)ccc(/C=N/NC(=O)CNc2cccc(C)c2)c1[N+](=O)[O-] [D10.019]
60.7	COC(=O)C1=CN(N(C(C)=O)C(C)=O)C(=O)CC1 [D12.033]
33.5	O=C(N/N=C/c1c(O)ccc2ccccc12)c1cc(-c2ccc(-c3ccccc3)cc2)n[nH]1 [D10.056]
52.6	COc1ccc(CCN(C)c2ccc(N3C(=O)CCCC3=O)cc2[N+](=O)[O-])cc1OC [D4.062]
7.5	Cc1ccc(C2N(CC(C)C)CC(C(=O)c3c(C)cccc3C)N2CCCN2CCCC2=O)cc1 (stereo not drawn) [D6.008]
23.8	CCC(=O)Oc1ccc(C(=O)Nc2ccc(OCC(=O)O)cc2)cc1 [D3.025]
44.3	COC(=O)O/N=C(/N)c1nonc1N [D11.011]
30.8	CCCn1c(N2CCN(CC(=O)c3c(C)n(C)c4ccccc34)CC2)nc2c1c(=O)[nH]c(=O)n2C [D5.023]

The next lines start with the molecule.

Compound	IC50 [µM]
O=C1c2ccc(-c3nc4ccccc4c(=O)o3)cc2C(=O)N1c1ccc(Cc2ccc(N3C(=O)c4ccc(-c5nc6ccccc6c(=O)o5)cc4C3=O)cc2)cc1 [D3.032]	27.2
CC(=O)Oc1ccc(-c2ccc(/C=N/NC(=O)C34CC5CC(C3)CC(c3ccc(C)cc3)(C5)C4)cc2)cc1 [D10.052]	32.9
O=C(/C=C/c1ccco1)Nc1ccc2oc(-c3cccc(Cl)c3Cl)nc2c1 [D3.055]	42.4
Cc1ccc(C(=O)C2(C)N(O)C(C)C(c3cccs3)=[N+]2[O-])cc1 (stereo not drawn) [D6.053]	34.1
O=C1c2ccccc2C(=O)N1c1cccc(-c2csc(N3N=C(c4cccc([N+](=O)[O-])c4)CC3c3ccc(F)cc3)n2)c1 (stereo not drawn) [D3.050]	39.8
O=C(Nc1cccc(/N=C/c2cc(I)cc(I)c2O)c1)c1ccco1 [D11.002]	9.2
O=C(N/N=C/c1cc([N+](=O)[O-])ccc1O)c1cccc2cc[nH]c12 [D10.009]	8.1
C/C(=C\c1ccc(C(C)C)cc1)C1NCC(c2ccc([N+](=O)[O-])cc2)O1 (stereo not drawn) [D4.072]	65
Cc1ccc(C(=O)N/C(=C/c2ccco2)C(=O)N(C)C)cc1 [D6.091]	47.7
CC(C)(C)S(=O)(=O)C1=CN2C3=C(CCCC3)NC2C=C1 (stereo not drawn) [D6.020]	15.6
Cc1ccc(/C=N/NC(=O)c2cccc(I)c2)o1 [D6.084]	57.4
C=CCOC(=O)c1cc(-c2ccc(/C=C3/C(=O)N(CCCO)C(=O)C(C#N)=C3C)o2)ccc1Cl [D6.065]	44.6
COc1cc(Br)cc(Br)c1OCC(=O)N/N=C/c1ccc(O)c([N+](=O)[O-])c1 [D10.050]	32.1
O=[N+]([O-])c1ccc(C2OCN3COCC23)cc1 (stereo not drawn) [D3.095]	42.4
CC(C)(C)CC(C)(C)c1ccc(OCC(=O)N/N=C/c2ccc(OC(=O)c3ccco3)c([N+](=O)[O-])c2)cc1 [D10.074]	52.9
